Consider seven compounds from publication PMC5464768, “ER retention is imposed by COPII protein sorting and attenuated by 4-phenylbutyrate” (eLife, 2017).

The subject of data set [1] is CHO cells expressing G544V-mutant LDL receptor. The experiment in a line: Restoration of trafficking of mutant LDL receptor in cells (immunoblot for 160 kDa mature glycosylated form). Conditions: for EC50: ± standard error of fit. The class given is cell-based. As for the experimental part: (§1) T-Rex-CHO-K1 cloned cell lines expressing wild-type and mutant LDL receptor were cultured as described ([Sørensen et al., 2006]; [Tveten et al., 2007]), and according to the manufacturer’s protocols (Thermo Fisher Scientific; CHO cell Lot No. 1610593). The expression in CHO cells of G544V-mutant or wild-type LDL receptor protein was induced with 1 µg/mL tetracycline for 24 hr prior to experiments with 4-PBA or 4-PBA analogs ([Tveten et al., 2007]). To compare pharmacological potency of 4-PBA analogs, cells were incubated with the compounds for 2 hr at 37°C in 12-well 22 mm plates (Corning Costar #3513). For experiments concerning the extracellular secretion of GRP94 (Figure 5), the incubations with 4-PBA were extended to 24 hr. Cells were broken in lysis buffer (1% (v/v) Triton X-100, 150 mM NaCl, 10 mM EDTA, 50 mM Tris-HCl pH 7.5) and cleared by centrifugation (15,000 g for 15 min). Cellular protein concentration was measured using ‘Protein Assay Kit II’ (Bio-Rad) with bovine serum albumin as standard. Lysates were added to Laemmli sample buffer (New England BioLabs) containing 130 mM dithiothreitol and heated for 15 min at 55°C. Cell medium (containing secreted proteins) was added to Laemmli sample buffer containing 5% β-mercaptoethanol and boiled for 5 min. Samples were run on 4–15% Tris/HCl Criterion gels (Bio-Rad) followed by immunoblotting.
Proteins were electrotransferred from SDS-PAGE gels onto Immun-Blot low fluorescence PVDF membrane (Bio-Rad) and blocked using TBST (5% BioRad Blocker in 25 mM Tris-HCl pH 7.4, 150 mM NaCl, 0.05% (v/v) Tween 20). Membranes were incubated at 4°C overnight with primary antibodies in TBST followed by incubation with horseradish peroxidase-conjugated secondary antibodies. Chemiluminescence signals were generated by incubation with ECL Prime Western Blotting detection reagent (GE Healthcare #RPN2236). […] Chemiluminescence signals were detected using a ChemiDoc MP Imaging System and acquired with Image Lab 5.0 software (Bio-Rad). Quantification of protein band intensities was performed using Image Gauge software Version 4.1 (Fujifilm), including background correction of the raw image data.
Chemiluminescence signals from western blots for the glycosylated (160 kDa) form of G544V-mutant LDL receptor were quantified as a percentage of total LDL receptor protein (glycosylated + unglycosylated bands). Data at high concentrations of 4-PBA analogs, which show inhibition of LDL receptor trafficking, were omitted. Data from individual experiments were normalized (to obtain maximal response = 100%), so that data from replicate experiments (n = 4–5) could be averaged. Logistic fitting to the dose-response data was carried out with program Ultrafit (Elsevier Biosoft).

For another data set, the target named is T1, human Sec24a (Homo sapiens, UniProt O95486).
T1 construct: His6 (TEV-cleavable) (N, cleaved yes); made in house; host or cells: High Five insect cells (baculovirus)
T1 sequence (O95486 341-1093): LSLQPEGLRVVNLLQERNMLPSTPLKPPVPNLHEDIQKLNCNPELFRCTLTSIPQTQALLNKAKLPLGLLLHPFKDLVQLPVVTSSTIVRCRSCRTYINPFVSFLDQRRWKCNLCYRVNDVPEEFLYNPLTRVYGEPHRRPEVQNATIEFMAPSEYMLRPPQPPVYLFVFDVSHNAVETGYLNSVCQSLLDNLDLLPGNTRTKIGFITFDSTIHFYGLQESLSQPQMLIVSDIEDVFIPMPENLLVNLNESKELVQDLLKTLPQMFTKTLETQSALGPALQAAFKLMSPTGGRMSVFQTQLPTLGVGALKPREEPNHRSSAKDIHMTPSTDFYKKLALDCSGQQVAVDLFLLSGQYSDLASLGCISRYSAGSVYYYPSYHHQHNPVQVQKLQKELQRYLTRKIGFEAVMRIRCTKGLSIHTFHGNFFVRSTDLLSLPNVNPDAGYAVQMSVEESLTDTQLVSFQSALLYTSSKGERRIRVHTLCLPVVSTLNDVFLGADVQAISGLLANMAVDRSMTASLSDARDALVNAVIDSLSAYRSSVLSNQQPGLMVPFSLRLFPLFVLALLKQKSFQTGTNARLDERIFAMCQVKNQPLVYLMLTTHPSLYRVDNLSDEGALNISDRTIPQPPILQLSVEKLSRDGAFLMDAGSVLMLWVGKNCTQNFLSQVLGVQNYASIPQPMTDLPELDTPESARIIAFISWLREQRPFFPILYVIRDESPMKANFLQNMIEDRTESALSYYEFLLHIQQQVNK
Kind of data set: Fluorescence polarization competition binding assay (displacement of 5-Fam-[…]). Conditions: fluorescence polarization at 22°C; 5 µM probe, 22 µM Sec24a; ± standard error of fit; read-out: IC50, displacement of fluorescent probe 5-Fam-[…] from Sec24a.

The target of data set [2] is T2, COPII coat (Sec23a/24d) packaging of p24 proteins and ERGIC-53 (Homo sapiens, UniProt O94855).
T2 construct: Sec23a/Sec24d (full-length protein) for COPII budding assays; His6 (TEV-cleavable) (N); made in house; host or cells: High Five insect cells (Sec23a/24d, Sec13a/31a); E. coli BL21(DE3) (Sar1a); added to digitonin-permeabilized T-Rex-CHO-K1 cells
Kind of data set: In vitro COPII vesicle budding assay with permeabilized CHO (T-Rex-CHO-K1) cells. The class given is biochemical, H. sapiens. Conditions: 10 mM 4-PBA; corrected for budding yield. As for the experimental part:
In vitro COPII budding reactions used permeabilized cells prepared from the T-Rex-CHO-K1 parent line and from the clone that expresses mutant LDL receptor. Permeabilization was carried out as described ([Mancias and Goldberg, 2008]) with modifications. Two culture dishes (150 mm) of cells were prepared with cells at no greater than 60% confluence. Cells were washed with 20 ml PBS at 37°C and then trypsinized with 2 ml of Trypsin-EDTA (0.05%, Gibco) for 1 min at 37°C; 100 µl of Soybean Trypsin Inhibitor (2 mg/ml; Sigma) was added to each culture plate. To this was added 5.5 ml ice-cold KHM buffer (110 mM KOAc, 20 mM Hepes pH 7.2, 2 mM magnesium acetate) per plate, and cells were transferred to a 15 ml Falcon tube and pelleted gently (250 g for 3 min at 4°C). The supernatant was aspirated and the cells resuspended in 6 ml ice-cold KHM buffer. To permeabilize the cells, 6 µl digitonin stock solution (40 mg/ml in dimethyl sulfoxide) was added, cells were mixed by inversion and incubated on ice for 5 min. To terminate permeabilization, cells were diluted to 14 ml with KHM buffer and immediately pelleted at 250 g for 3 min at 4°C. […] The protein concentration was measured using protein assay kit (Bio-Rad) with BSA as standard; routinely, the measurement is in the range 4–5 mg/ml. […]

The target in another data set is T3, B site of Sec24a (Homo sapiens, UniProt O95486).
T3 construct: His6 (TEV-cleavable) (N, cleaved yes); made in house; host or cells: High Five insect cells (Sec23a/Sec24a); E. coli (Sec22b)
Kind of data set: X-ray crystallography of ligand-soaked Sec23a/Sec24a•Sec22b crystals. The class given is binding. Conditions: crystals soaked with 4-PBA at 1, 15 and 50 mM or with 5 mM ΦC signal peptide. As for the experimental part:
The Sec23a/Sec24a•Sec22b complex was crystallized as described previously ([Mancias and Goldberg, 2007]) from a solution comprising 10% (w/v) PEG 4000, 500 mM Na acetate and 50 mM Tris-HCl pH 7.9. Since acetate ions compete with ligand binding at the B site, crystals were transferred into a soaking buffer of 10% (w/v) PEG 4000, 600 mM NaCl, 50 mM Tris-HCl buffer, pH 7.9. (Two acetate ions are observed bound to B-site arginine residues in electron density maps calculated from Sec23a/Sec24a•Sec22b crystallographic data, PDB 2NUT). To this was added 4-PBA (0–50 mM) or 5 mM ΦC signal peptide, and ligand soaking proceeded for five hours at 22°C. Crystals were then transferred to an equivalent ligand-containing buffer with additional 24% ethylene glycol cryo-protectant, and were flash frozen in liquid nitrogen. Crystals treated in this manner diffracted synchrotron X-rays to 2.5–2.8 Å resolution.
X-ray diffraction data were collected at 0.979 Å wavelength on beamline ID-24C or ID-24E of the Advanced Photon Source, Argonne National Laboratory. Data were processed with the program HKL2000 ([Otwinowski and Minor, 1997]; Tables 1 and 2). Structure refinement was carried out using Phenix ([Adams et al., 2010]), initially by rigid-body improvement, followed by positional refinement, based on the published coordinates of Sec23a/Sec24a•Sec22b (PDB 2NUT; [Mancias and Goldberg, 2007]). […]

Data set [3] concerns CHO cells (stressed, expressing G544V-mutant LDL receptor, and unstressed wild-type). Kind of data set: Extracellular secretion of GRP94 from CHO cells. Type of data set: cell-based. Conditions: 24 hr at 37°C. As for the experimental part: as §1
The mark [4] stands for this setting: Cricetulus griseus, CHO, 2 h, read-out: EC50, acquisition of mutant LDL receptor glycosylation (restoration of trafficking), CHO cells expressing G544V-mutant LDL receptor, 2 hr at 37°C.

Molecules are shown by their SMILES. Where two headings read alike, the source gives them in different places. Bounds are passed on as bounds.

T3 sequence (Q15436 whole entry partner, one chain of several): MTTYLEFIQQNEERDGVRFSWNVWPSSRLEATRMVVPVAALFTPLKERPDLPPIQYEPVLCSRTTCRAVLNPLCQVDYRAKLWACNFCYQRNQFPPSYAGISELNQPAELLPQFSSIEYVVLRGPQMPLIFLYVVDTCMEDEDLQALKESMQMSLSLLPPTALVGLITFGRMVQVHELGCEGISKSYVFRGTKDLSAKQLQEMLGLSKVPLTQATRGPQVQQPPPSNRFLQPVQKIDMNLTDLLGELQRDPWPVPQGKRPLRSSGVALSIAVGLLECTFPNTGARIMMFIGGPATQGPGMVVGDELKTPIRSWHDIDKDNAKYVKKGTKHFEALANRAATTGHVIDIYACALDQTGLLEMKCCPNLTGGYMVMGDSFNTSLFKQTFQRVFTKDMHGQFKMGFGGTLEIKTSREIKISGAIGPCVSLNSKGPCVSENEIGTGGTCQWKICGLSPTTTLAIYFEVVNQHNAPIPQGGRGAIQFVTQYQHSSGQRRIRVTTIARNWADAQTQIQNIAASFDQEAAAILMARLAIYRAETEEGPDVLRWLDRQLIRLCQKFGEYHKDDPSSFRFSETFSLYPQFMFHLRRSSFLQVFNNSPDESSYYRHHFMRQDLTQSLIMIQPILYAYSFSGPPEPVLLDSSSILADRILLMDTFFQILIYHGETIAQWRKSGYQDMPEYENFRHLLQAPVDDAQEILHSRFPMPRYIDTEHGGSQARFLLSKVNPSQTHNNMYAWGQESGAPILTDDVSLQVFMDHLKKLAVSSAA
T3 sequence (O75396 1-195 partner limits assumed, one chain of several): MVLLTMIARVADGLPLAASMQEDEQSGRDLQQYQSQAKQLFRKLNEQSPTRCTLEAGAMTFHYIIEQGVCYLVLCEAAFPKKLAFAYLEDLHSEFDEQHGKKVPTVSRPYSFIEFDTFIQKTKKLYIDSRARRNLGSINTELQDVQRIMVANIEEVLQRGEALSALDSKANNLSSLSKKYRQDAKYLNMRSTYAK
T2 sequence (O94855 whole entry): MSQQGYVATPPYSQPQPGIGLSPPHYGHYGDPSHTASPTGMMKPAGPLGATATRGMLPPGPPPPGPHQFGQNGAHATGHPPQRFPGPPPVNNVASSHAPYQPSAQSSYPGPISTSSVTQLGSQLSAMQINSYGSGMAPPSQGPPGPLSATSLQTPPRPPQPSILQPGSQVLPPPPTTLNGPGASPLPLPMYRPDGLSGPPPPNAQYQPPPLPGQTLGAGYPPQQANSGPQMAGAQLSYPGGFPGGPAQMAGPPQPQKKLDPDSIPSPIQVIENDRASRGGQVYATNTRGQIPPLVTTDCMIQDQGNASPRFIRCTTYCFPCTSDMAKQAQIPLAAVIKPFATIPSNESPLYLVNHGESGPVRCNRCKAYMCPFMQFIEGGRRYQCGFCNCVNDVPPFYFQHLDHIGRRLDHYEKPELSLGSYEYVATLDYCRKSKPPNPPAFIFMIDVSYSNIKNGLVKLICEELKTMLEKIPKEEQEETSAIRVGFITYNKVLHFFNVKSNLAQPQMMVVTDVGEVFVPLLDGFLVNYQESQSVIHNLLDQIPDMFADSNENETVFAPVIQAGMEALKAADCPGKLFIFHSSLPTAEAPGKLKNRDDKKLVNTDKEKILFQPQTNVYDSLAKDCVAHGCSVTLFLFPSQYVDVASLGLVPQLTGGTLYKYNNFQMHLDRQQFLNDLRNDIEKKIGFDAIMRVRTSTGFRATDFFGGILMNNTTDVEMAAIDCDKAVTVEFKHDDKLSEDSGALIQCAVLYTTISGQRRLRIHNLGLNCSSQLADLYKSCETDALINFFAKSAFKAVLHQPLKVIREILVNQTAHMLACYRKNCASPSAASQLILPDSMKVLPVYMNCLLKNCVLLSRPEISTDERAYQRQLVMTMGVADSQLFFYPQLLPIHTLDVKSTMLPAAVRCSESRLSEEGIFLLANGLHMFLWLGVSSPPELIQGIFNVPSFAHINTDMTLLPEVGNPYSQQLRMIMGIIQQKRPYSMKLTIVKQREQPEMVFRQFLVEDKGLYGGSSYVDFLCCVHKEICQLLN
T2 sequence (Q15436 whole entry partner): as the sequence (Q15436 whole entry partner, one chain of several) above

Regarding `O=C(O)CCc1ccccc1` [3-PPA, 3-phenylpropionate], the EC50 in data set [1] (setting [4]) was found to be 7.48 ± 0.68 mM. The concentration for half-maximal inhibition (IC50) on human Sec24a was 4.11 ± 0.34 mM.

Take `O=C(O)CCCc1ccccc1` [4-PBA, 4-phenylbutyrate]: the “reduction in the packaging rate of p24 proteins and ERGIC-53 into COPII vesicles” value in data set [2] was 50%. For the same compound, in data set [1] (10 mM 4-PBA applied to cells), the “fraction of mutant LDL receptor with restored trafficking” value was ≤ 25%. For the same compound, the EC50 turned out to be 6.4 mM in data set [1] (setting [4]) and 6.37 ± 0.5 mM in data set [1] (read-out: EC50, acquisition of mutant LDL receptor glycosylation (restoration of trafficking), CHO cells expressing G544V-mutant LDL receptor, 2 hr at 37°C). Further, on human Sec24a, the concentration for half-maximal inhibition (IC50) was 3.66 ± 0.22 mM. Besides, the “binding to Sec24a in crystals (difference Fourier maps / residual electron density)” value at B site of Sec24a is recorded as “clear evidence for binding”. Moreover, the “cell lysis (GAPDH marker) and loss of GRP94 secretion” value in data set [3] (45 mM 4-PBA) is “cell lysis is detected”. Besides, the “concentration giving maximal secretion of GRP94” value in data set [3] (stressed and unstressed cells) was determined as 20 mM.

On to `O=C(O)CCCCc1ccccc1` [5-PVA, 5-phenylvalerate], for which, in data set [1] (setting [4]), the EC50 amounted to 3.36 ± 0.42 mM. Besides, the 50% inhibitory concentration (IC50) on human Sec24a worked out at 0.99 ± 0.08 mM.

Consider `O=C(O)CCCc1ccc(O)cc1` [Hydroxy-PBA, 4-(4-hydroxyphenyl)butyrate], for which, in data set [1] (setting [4]), the EC50 was found to be 10.6 ± 0.4 mM. Further, the IC50 on human Sec24a worked out at 5.04 ± 0.69 mM.

Regarding `O=C(O)CCc1ccc(O)cc1` [Hydroxy-PPA, 3-(4-hydroxyphenyl)propionate], the EC50 in data set [1] (setting [4]) was 21.7 ± 1.03 mM. Further, the half-inhibitory concentration (IC50) on human Sec24a was found to be 9.22 ± 0.94 mM.

Turning to `COc1ccc(CCCC(=O)O)cc1` [Methoxy-PBA, 4-(4-methoxyphenyl)butyrate], the EC50 in data set [1] (setting [4]) was found to be 8.63 ± 0.98 mM. Moreover, on human Sec24a, the IC50 was found to be 4.14 ± 0.7 mM.

On to `Cc1ccc(CCCC(=O)O)cc1` [Tolyl-BA, 4-(4-tolyl)butyrate], for which, in data set [1] (setting [4]), the EC50 is 4.89 ± 0.24 mM. Also, the half-inhibitory concentration (IC50) at human Sec24a was found to be 1.7 ± 0.16 mM.
